Columns and labels:
[1] = target: NAMPT (human, recombinant, C-terminally His-tagged) (Homo sapiens, UniProt P43490); test: Time-Resolved Fluorescence Resonance Energy Transfer (TR-FRET) Binding Assay of NAMPT; settings: 6.8 nM NAMPT, 200 nM probe, equilibrated 3 hours, absence of substrates
Method in brief: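 Recombinant C-terminally His-tagged human NAMPT (6.8 nM) incubated 3 h at room temperature with 200 nM Oregon Green 488–labelled nicotinamide-competitive probe and 1 nM Tb-anti-His antibody in HEPES pH 7.5, 2% DMSO. TR-FRET ratio Em520/Em495 normalized to controls; IC50 from four-parameter logistic fit.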

[2] = target: NAMPT (Homo sapiens, UniProt P43490); test: Time-Resolved Fluorescence Resonance Energy Transfer (TR-FRET) Binding Assay of NAMPT with PRPP; settings: 2 nM NAMPT, 2 nM probe, 200 uM PRPP and 2.5 mM ATP, equilibrated 16 hours
Method in brief: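 Final mix: 2 nM NAMPT, 2 nM probe, 1 nM Tb-anti-His antibody, 200 uM PRPP, 2.5 mM ATP, 2% DMSO in 1× assay buffer. Equilibrated 16 hours before TR-FRET read, allowing possible enzymatic modification of compounds.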

Chain of NAMPT (human, recombinant, C-terminally His-tagged) (P43490 whole entry): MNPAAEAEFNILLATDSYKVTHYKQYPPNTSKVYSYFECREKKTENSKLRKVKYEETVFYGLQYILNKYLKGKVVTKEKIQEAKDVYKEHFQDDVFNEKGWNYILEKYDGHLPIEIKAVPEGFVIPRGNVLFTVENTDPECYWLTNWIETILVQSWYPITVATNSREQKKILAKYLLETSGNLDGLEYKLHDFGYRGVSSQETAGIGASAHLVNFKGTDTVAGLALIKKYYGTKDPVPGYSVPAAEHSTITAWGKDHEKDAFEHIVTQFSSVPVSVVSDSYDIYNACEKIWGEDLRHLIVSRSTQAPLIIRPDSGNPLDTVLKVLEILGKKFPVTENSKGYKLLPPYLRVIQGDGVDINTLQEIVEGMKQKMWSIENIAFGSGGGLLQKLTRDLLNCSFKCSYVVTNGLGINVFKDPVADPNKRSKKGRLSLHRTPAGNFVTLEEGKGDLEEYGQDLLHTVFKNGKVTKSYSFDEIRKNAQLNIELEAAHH
Chain of NAMPT (P43490 whole entry): as above

Row | IC50 [1] [µM] | IC50 [2] [µM] | SMILES
1 | 0.0276 | 0.00052 | C#CCCC(=O)N1CCC(c2ccc(NC(=O)C3CN(c4cccnn4)C3)cc2)CC1 [Example 338, N-{4-[1-(pent-4-ynoyl)piperidin-4-yl]phenyl}-1-(pyridazin-3-yl)azetidine-3-carboxamide]
2 | 0.0179 | 0.000663 | O=C(Nc1ccc(C2CCN(C(=O)C3CCCCC3)CC2)cc1)C1CN(c2cccnn2)C1 [Example 339, N-{4-[1-(cyclohexylcarbonyl)piperidin-4-yl]phenyl}-1-(pyridazin-3-yl)azetidine-3-carboxamide]
3 | 0.0176 | 0.000722 | O=C(Nc1ccc(C2CCN(C(=O)CC3CCCCC3)CC2)cc1)C1CN(c2cccnn2)C1 [Example 340, N-{4-[1-(cyclohexylacetyl)piperidin-4-yl]phenyl}-1-(pyridazin-3-yl)azetidine-3-carboxamide]
4 | 0.12 | 0.000386 | O=C(Nc1ccc(OC2CCN(C(=O)CC3CCOCC3)CC2)cc1)C1CN(c2cccnc2)C1 [Example 1, 1-(pyridin-3-yl)-N-(4-{[1-(tetrahydro-2H-pyran-4-ylacetyl)piperidin-4-yl]oxy}phenyl)azetidine-3-carboxamide]
5 | 0.0915 | 0.0898 | Cc1ncccc1N1CC(C(=O)Nc2ccc(C3CCN(C(=O)C4(C)CC4)CC3)cc2)C1 [Example 170, N-(4-{1-[(1-methylcyclopropyl)carbonyl]piperidin-4-yl}phenyl)-1-(2-methylpyridin-3-yl)azetidine-3-carboxamide]
6 | 0.109 | 0.00117 | O=C(Nc1ccc(OC2CCN(C(=O)CCC(F)(F)F)CC2)cc1)C1CN(c2cccnc2)C1 [Example 51, 1-(pyridin-3-yl)-N-(4-{[1-(4,4,4-trifluorobutanoyl)piperidin-4-yl]oxy}phenyl)azetidine-3-carboxamide]
7 | 0.0177 | 0.00114 | Cc1cccc(C(=O)N2CCC(c3ccc(NC(=O)C4CN(c5cccnn5)C4)cc3)CC2)c1C [Example 357, N-{4-[1-(2,3-dimethylbenzoyl)piperidin-4-yl]phenyl}-1-(pyridazin-3-yl)azetidine-3-carboxamide]
8 | 0.224 | 0.0711 | COc1ncccc1N1CC(C(=O)Nc2ccc(C3CCN(C(=O)C(C)(C)O)CC3)cc2)C1 [Example 73, N-{4-[1-(2-hydroxy-2-methylpropanoyl)piperidin-4-yl]phenyl}-1-(2-methoxypyridin-3-yl)azetidine-3-carboxamide]
9 | 0.0249 | 0.000747 | CCC(C)C(=O)N1CCC(c2ccc(NC(=O)C3CN(c4cccnn4)C3)cc2)CC1 (stereo not drawn) [Example 319, N-{4-[1-(2-methylbutanoyl)piperidin-4-yl]phenyl}-1-(pyridazin-3-yl)azetidine-3-carboxamide]
10 | 0.0656 | 0.000282 | COCCOCC(=O)N1CCC(c2ccc(NC(=O)C3CN(c4cccnc4)C3)cc2)CC1 [Example 123, N-(4-{1-[(2-methoxyethoxy)acetyl]piperidin-4-yl}phenyl)-1-(pyridin-3-yl)azetidine-3-carboxamide]
11 | 0.017 | 0.0311 | CC[C@H](C)C(=O)N1CCC(c2ccc(NC(=O)C3CN(c4ccnnc4)C3)cc2)CC1 [Example 143, N-(4-{1-[(2S)-2-methylbutanoyl]piperidin-4-yl}phenyl)-1-(pyridazin-4-yl)azetidine-3-carboxamide]
12 | 0.00846 | 0.000441 | CC(C)(C)CC(=O)N1CCC(c2ccc(NC(=O)C3CN(c4cccnc4)C3)cc2)CC1 [Example 132, N-{4-[1-(3,3-dimethylbutanoyl)piperidin-4-yl]phenyl}-1-(pyridin-3-yl)azetidine-3-carboxamide]
13 | 0.131 | 0.000811 | CC(C)(C)C(=O)N1CCC(Oc2ccc(NC(=O)C3CN(c4cccnn4)C3)cc2)CC1 [Example 241, N-(4-{[1-(2,2-dimethylpropanoyl)piperidin-4-yl]oxy}phenyl)-1-(pyridazin-3-yl)azetidine-3-carboxamide]
14 | 0.0599 | 0.0006 | O=C(Nc1ccc(OC2CCN(C(=O)c3cccs3)CC2)cc1)C1CN(c2cccnn2)C1 [Example 249, 1-(pyridazin-3-yl)-N-(4-{[1-(thiophen-2-ylcarbonyl)piperidin-4-yl]oxy}phenyl)azetidine-3-carboxamide]
15 | 0.0265 | 0.000204 | CC(C)CCC(=O)N1CCC(c2ccc(NC(=O)C3CN(c4cccnc4)C3)cc2)CC1 [Example 116, N-{4-[1-(4-methylpentanoyl)piperidin-4-yl]phenyl}-1-(pyridin-3-yl)azetidine-3-carboxamide]
16 | 1.13 | 0.00894 | O=C(Nc1ccc(C2CCN(C(=O)CC3CCOCC3)CC2)cc1)[C@H]1CCN(c2cccnn2)C1 [Example 312, (3S)-1-(pyridazin-3-yl)-N-{4-[1-(tetrahydro-2H-pyran-4-ylacetyl)piperidin-4-yl]phenyl}pyrrolidine-3-carboxamide]
17 | 0.137 | 0.0612 | CCCCC(=O)N1CCC(c2ccc(NC(=O)C3CN(c4cccnc4C)C3)cc2)CC1 [Example 159, 1-(2-methylpyridin-3-yl)-N-[4-(1-pentanoylpiperidin-4-yl)phenyl]azetidine-3-carboxamide]
18 | 0.0369 | 0.0184 | O=C(Nc1ccc(OC2CCN(C(=O)Cc3ccccc3F)CC2)cc1)C1CN(c2ccnnc2)C1 [Example 308, N-[4-({1-[(2-fluorophenyl)acetyl]piperidin-4-yl}oxy)phenyl]-1-(pyridazin-4-yl)azetidine-3-carboxamide]
19 | 0.00364 | 0.000391 | O=C(Nc1ccc(C2CCN(C(=O)c3cccs3)CC2)cc1)C1CN(c2cccnc2)C1 [Example 127, 1-(pyridin-3-yl)-N-{4-[1-(thiophen-2-ylcarbonyl)piperidin-4-yl]phenyl}azetidine-3-carboxamide]
20 | 0.123 | 0.0519 | CC(C)(C)C(=O)N1CCC(Oc2ccc(NC(=O)C3CN(c4ccnnc4)C3)cc2)CC1 [Example 280, N-(4-{[1-(2,2-dimethylpropanoyl)piperidin-4-yl]oxy}phenyl)-1-(pyridazin-4-yl)azetidine-3-carboxamide]
21 | 0.141 | 0.0867 | CC(C)(O)C(=O)N1CC(Oc2ccc(NC(=O)C3CN(c4ccnnc4)C3)cc2)C1 [Example 207, N-(4-{[1-(2-hydroxy-2-methylpropanoyl)azetidin-3-yl]oxy}phenyl)-1-(pyridazin-4-yl)azetidine-3-carboxamide]
22 | 0.00449 | 0.000367 | O=C(Nc1ccc(C2CCN(C(=O)c3ccco3)CC2)cc1)C1CN(c2cccnc2)C1 [Example 129, N-{4-[1-(furan-2-ylcarbonyl)piperidin-4-yl]phenyl}-1-(pyridin-3-yl)azetidine-3-carboxamide]
23 | 0.0202 | 0.0155 | O=C(Nc1ccc(OC2CCN(C(=O)c3ccccc3Cl)CC2)cc1)C1CN(c2ccnnc2)C1 [Example 279, N-(4-{[1-(2-chlorobenzoyl)piperidin-4-yl]oxy}phenyl)-1-(pyridazin-4-yl)azetidine-3-carboxamide]
24 | 0.524 | 0.154 | Cc1ncccc1N1CC(C(=O)Nc2ccc(C3CCN(C(=O)CN4CCN(C)CC4)CC3)cc2)C1 [Example 173, N-(4-{1-[(4-methylpiperazin-1-yl)acetyl]piperidin-4-yl}phenyl)-1-(2-methylpyridin-3-yl)azetidine-3-carboxamide]
